Experiments:
Test in all cases: KINOMEscan
Format in all cases: binding
Settings in all cases: read-out: % control activity remaining
[1] = target: T1, FLT3(N841I) (Homo sapiens, UniProt P36888, N841I)
T1 construct: purchased Eurofins DiscoverX KINOMEscan
T1 sequence (P36888 27-993 N841I): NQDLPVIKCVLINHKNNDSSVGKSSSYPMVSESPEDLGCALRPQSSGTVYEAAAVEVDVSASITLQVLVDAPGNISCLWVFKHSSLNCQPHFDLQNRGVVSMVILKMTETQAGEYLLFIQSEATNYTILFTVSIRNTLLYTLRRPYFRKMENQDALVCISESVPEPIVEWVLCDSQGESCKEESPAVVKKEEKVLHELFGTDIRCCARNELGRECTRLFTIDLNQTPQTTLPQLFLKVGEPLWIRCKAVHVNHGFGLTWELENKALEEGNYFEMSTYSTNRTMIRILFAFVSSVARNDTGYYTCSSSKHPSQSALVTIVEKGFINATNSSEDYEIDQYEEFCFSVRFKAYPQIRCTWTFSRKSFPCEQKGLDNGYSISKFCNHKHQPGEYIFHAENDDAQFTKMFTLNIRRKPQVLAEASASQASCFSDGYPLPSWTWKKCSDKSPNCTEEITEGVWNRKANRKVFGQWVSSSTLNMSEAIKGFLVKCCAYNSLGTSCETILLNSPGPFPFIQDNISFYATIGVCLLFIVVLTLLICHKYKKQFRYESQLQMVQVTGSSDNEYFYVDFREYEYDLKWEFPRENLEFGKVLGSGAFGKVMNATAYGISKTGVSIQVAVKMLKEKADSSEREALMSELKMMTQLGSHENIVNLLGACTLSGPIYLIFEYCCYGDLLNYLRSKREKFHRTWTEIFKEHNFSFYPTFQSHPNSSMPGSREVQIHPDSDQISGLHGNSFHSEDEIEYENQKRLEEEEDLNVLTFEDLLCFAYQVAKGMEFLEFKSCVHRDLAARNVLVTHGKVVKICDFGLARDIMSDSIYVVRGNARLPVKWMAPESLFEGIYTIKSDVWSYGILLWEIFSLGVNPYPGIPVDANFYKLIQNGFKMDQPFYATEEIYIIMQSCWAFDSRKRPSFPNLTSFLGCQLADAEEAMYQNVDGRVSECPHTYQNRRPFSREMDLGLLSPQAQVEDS

[2] = target: T2, CSNK1G3 (Homo sapiens, UniProt Q9Y6M4)
T2 construct: purchased Eurofins DiscoverX KINOMEscan

[3] = target: T3, PRKD2 (Homo sapiens, UniProt Q9BZL6)
T3 construct: purchased Eurofins DiscoverX KINOMEscan
T3 sequence (Q9BZL6 1-878): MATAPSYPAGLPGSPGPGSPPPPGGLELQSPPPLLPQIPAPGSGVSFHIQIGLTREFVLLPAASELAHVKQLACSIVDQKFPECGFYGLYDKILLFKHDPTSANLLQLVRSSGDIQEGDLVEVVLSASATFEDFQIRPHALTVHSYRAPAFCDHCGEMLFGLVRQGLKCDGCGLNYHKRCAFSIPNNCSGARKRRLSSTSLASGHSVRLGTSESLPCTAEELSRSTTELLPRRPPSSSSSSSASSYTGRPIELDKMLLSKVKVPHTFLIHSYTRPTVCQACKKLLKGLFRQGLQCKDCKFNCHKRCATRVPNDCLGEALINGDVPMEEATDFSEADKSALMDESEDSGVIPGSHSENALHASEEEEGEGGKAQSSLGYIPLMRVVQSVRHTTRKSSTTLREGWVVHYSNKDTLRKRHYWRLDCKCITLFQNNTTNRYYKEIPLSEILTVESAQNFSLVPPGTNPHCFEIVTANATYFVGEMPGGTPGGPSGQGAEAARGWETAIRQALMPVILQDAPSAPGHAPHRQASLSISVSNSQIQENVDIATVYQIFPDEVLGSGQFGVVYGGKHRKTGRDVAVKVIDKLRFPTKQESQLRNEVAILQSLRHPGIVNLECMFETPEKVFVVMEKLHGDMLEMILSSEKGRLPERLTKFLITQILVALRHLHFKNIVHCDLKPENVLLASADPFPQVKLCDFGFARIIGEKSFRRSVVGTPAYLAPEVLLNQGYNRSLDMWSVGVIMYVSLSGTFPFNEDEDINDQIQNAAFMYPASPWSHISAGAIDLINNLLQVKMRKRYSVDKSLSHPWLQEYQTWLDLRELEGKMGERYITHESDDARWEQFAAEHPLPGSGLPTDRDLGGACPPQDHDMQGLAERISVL

[4] = target: T4, YSK1 (Homo sapiens, UniProt O00506)
T4 construct: purchased Eurofins DiscoverX KINOMEscan

[5] = target: T5, HASPIN (Homo sapiens, UniProt Q8TF76)
T5 construct: purchased Eurofins DiscoverX KINOMEscan
T5 sequence (Q8TF76 1-798): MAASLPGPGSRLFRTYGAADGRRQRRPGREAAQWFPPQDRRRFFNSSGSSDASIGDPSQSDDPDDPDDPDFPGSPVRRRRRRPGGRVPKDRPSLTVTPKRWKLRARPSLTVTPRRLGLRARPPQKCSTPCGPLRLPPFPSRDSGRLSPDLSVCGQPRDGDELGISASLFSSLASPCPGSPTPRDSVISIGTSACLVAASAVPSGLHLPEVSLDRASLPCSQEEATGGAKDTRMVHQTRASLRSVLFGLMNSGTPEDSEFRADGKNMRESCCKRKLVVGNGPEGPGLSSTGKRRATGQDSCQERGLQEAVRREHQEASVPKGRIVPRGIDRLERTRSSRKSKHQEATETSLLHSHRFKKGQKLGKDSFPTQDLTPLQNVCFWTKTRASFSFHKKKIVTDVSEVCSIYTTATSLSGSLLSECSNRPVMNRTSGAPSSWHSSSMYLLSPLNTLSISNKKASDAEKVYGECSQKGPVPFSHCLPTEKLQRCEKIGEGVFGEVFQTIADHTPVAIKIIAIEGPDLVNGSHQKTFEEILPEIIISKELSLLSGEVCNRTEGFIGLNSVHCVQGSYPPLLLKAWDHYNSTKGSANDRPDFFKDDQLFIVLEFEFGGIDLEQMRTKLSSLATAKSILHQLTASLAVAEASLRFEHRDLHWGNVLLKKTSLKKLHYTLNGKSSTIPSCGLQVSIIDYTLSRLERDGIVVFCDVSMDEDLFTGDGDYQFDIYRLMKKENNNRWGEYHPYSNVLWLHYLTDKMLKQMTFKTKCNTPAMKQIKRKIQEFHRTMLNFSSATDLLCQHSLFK

T4 sequence (O00506 whole entry): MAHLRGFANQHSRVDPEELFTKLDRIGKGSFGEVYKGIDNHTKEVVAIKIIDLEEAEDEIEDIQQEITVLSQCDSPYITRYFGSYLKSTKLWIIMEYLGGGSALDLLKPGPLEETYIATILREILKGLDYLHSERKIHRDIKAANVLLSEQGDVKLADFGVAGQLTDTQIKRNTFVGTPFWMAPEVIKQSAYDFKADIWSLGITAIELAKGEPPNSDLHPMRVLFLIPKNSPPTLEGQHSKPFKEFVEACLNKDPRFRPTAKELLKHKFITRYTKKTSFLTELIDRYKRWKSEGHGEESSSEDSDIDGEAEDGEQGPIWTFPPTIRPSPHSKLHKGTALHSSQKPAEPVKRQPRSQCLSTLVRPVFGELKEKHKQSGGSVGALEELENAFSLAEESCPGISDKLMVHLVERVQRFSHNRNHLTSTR
T2 sequence (Q9Y6M4 whole entry): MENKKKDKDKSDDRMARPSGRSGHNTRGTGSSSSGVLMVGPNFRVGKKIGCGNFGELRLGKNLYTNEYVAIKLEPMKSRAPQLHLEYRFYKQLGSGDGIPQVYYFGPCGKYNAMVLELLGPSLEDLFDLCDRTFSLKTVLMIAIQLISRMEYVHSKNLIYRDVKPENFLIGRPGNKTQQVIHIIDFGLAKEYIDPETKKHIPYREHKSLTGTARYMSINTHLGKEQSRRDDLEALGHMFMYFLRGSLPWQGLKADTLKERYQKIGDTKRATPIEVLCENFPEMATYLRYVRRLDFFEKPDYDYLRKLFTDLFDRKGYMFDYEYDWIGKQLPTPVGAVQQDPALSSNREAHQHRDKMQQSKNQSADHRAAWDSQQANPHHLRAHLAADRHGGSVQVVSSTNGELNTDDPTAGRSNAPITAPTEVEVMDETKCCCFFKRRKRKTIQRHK

Row | SMILES | remaining binding at 1 µM [1] [%] | remaining binding at 1 µM [2] [%] | remaining binding at 1 µM [3] [%] | remaining binding at 1 µM [4] [%] | remaining binding at 1 µM [5] [%]
1 | Clc1cc(NCC2CC2)c2ncc(-c3ccc4[nH]ncc4c3)n2n1 [compound 2, 6-Chloro-N-(cyclopropylmethyl)-3-(1H-indazol-5-yl)imidazo[1,2-b]pyridazin-8-amine] | 7.5 | 100 | 100 | 92 | 21
2 | O=C(CN1CCOCC1)N[C@H]1CC[C@H](Nc2cc(Cl)nn3c(-c4ccc5[nH]ncc5c4)cnc23)CC1 [compound 26] | 0 | 100 | 100 | 100 | 22
3 | CN1CCC(CNc2cc(Cl)nn3c(-c4cc5nc(Nc6ccccc6)[nH]c5cc4F)cnc23)CC1 [compound 31, 6-Chloro-3-(6-fluoro-2-(phenylamino)-1H-benzo[d]imidazol-5-yl)-N-((1-methylpiperidin-4-yl)methyl)imidazo[1,2-b]pyridazin-8-amine] | 96 | 100 | 93 | 99 | 66
